Experimental data taken from ChEMBL document CHEMBL4007419, “Discovery of hyaluronidase inhibitors from natural products and their mechanistic characterization under DMSO-perturbed assay conditions” (Bioorg Med Chem Lett, 2017).
Activity calls are given as the source filed them. The calls are words filed in the database; no cut-off is given here.

Key:
[1] = Inhibition of CaCl2 activated hyaluronidase (unknown origin) using hyaluronic acid as substrate preincubated for 20 mins followed by substrate addition measured after 10 mins in presence of Triton-X-100 by colorimetric method; set-up: species or system Homo sapiens
[2] = Inhibition of hyaluronidase (unknown origin) using hyaluronic acid as substrate preincubated for 20 mins followed by substrate addition measured after 40 mins by colorimetric method; set-up: species or system Homo sapiens
[3] = Inhibition of CaCl2 activated hyaluronidase (unknown origin) using hyaluronic acid as substrate preincubated for 20 mins followed by substrate addition measured after 10 mins by colorimetric method; set-up: species or system Homo sapiens
[4] = species on record: Homo sapiens; test: Inhibition of CaCl2 activated hyaluronidase (unknown origin) up to 400 uM using hyaluronic acid as substrate preincubated for 20 mins followed by substrate addition measured after 10 mins in presence of up to 15% DMSO by colorimetric method
[5] = Inhibition of hyaluronidase (unknown origin) using hyaluronic acid as substrate preincubated for 20 mins followed by CaCl2 activation for 20 mins and subsequent substrate addition measured after 10 mins by colorimetric method; set-up: species or system Homo sapiens
[6] = species on record: Homo sapiens; test: Ratio of IC50 for CaCl2 activated hyaluronidase (unknown origin) to IC50 for hyaluronidase (unknown origin) using hyaluronic acid as substrate preincubated for 20 mins followed by CaCl2 activation
[7] = species on record: Homo sapiens; test: Inhibition of CaCl2 activated hyaluronidase (unknown origin) up to 3000 uM using hyaluronic acid as substrate preincubated for 20 mins followed by substrate addition measured after 10 mins in presence of up to 21% DMSO by colorimetric method
[8] = species on record: Homo sapiens; test: Inhibition of CaCl2 activated hyaluronidase (unknown origin) up to 4000 uM using hyaluronic acid as substrate preincubated for 20 mins followed by substrate addition measured after 10 mins in presence of up to 20% DMSO by colorimetric method
[9] = Inhibition of CaCl2 activated hyaluronidase (unknown origin) using hyaluronic acid as substrate preincubated for 20 mins followed by substrate addition measured after 10 mins in presence of dithiothreitol by colorimetric method; set-up: species or system Homo sapiens
[10] = species on record: Homo sapiens; test: Non-competitive inhibition of hyaluronidase (unknown origin) up to 1000 um using hyaluronic acid as substrate preincubated for 20 mins followed by substrate addition measured after 10 mins by Lineweaver-Burk plot analysis

CC1(C)CC[C@]2(C(=O)O[C@@H]3O[C@H](CO)[C@@H](O)[C@H](O)[C@H]3O)CC[C@]3(C)C(=CC[C@@H]4[C@@]5(C)CC[C@H](O[C@@H]6O[C@H](C(=O)O)[C@@H](O[C@@H]7O[C@@H](CO)[C@H](O)[C@H]7O)[C@H](O)[C@H]6O)C(C)(C)[C@@H]5CC[C@]43C)[C@@H]2C1
IC50 [1]: 190 µM
IC50 [2]: 24 µM
IC50 [3]: 80 µM
inhibition [4]: inactive
IC50 [5]: 30 µM
Ratio IC50 [6]: 2.5

O=C(O[C@@H]1Cc2c(O)cc(O)cc2O[C@@H]1c1cc(O)c(O)c(O)c1)c1cc(O)c(O)c(O)c1
inhibition [7]: Active

Oc1cc(O)c2c(c1)O[C@H](c1ccc(O)c(O)c1)[C@@H](O)C2
inhibition [8]: Active

Oc1cc(O)c2c(c1)O[C@@H](c1ccc(O)c(O)c1)[C@H](O)C2 [(-)-CATECHIN]
IC50 [2]: 1100 µM

Oc1cc(O)c2c(c1)O[C@H](c1ccc(O)c(O)c1)[C@H](O)C2 [(-)-EPICATECHIN]
IC50 [9]: 806 µM
inhibition [7]: Active
IC50 [1]: 734 µM
IC50 [2]: 804 µM
IC50 [3]: 789 µM
inhibition [10]: Active
IC50 [5]: 685 µM

O=C(O)[C@H]1O[C@@H](Oc2cc3oc(-c4ccccc4)cc(=O)c3c(O)c2O)[C@H](O)[C@@H](O)[C@@H]1O [BAICALIN]
IC50 [2]: 506 µM

CC1(C)CC[C@]2(C(=O)O[C@@H]3O[C@H](CO)[C@@H](O)[C@H](O)[C@H]3O)CC[C@]3(C)C(=CC[C@@H]4[C@@]5(C)CC[C@H](O[C@@H]6O[C@H](C(=O)O)[C@@H](O)[C@H](O)[C@H]6O[C@@H]6O[C@H](CO)[C@@H](O)[C@H](O)[C@H]6O)C(C)(C)[C@@H]5CC[C@]43C)[C@@H]2C1 [GINSENOSIDE R0]
IC50 [2]: 34 µM

CC1(C)[C@@H](O[C@H]2O[C@H](C(=O)O)[C@@H](O)[C@H](O)[C@H]2O[C@@H]2O[C@H](C(=O)O)[C@@H](O)[C@H](O)[C@H]2O)CC[C@]2(C)[C@H]3C(=O)C=C4[C@@H]5C[C@@](C)(C(=O)O)CC[C@]5(C)CC[C@@]4(C)[C@]3(C)CC[C@@H]12 [GLYCYRRHIZIN]
IC50 [2]: 8.5 µM
